According to patent US7897765B2, “Therapeutic compounds and uses thereof” (Elixir Pharmaceuticals, Inc., priority 2003, dated 2011):

Molecular target: GHS-R (Homo sapiens, UniProt Q92847)
Assay: cell based assay of GHS-R antagonist/agonist activity
Design: key: A refers to a compound having antagonist activity with Ki<100 nM in a cell based assay; B refers to a compound having agonist activity with EC50<100 nM in a cell based assay; C refers to a compound having antagonist activity of Ki>100 nM and <1500 nM in a cell based assay; D refers to a compound having antagonist activity with Ki, <100 nM and agonist activity with EC50<100 nM in a cell-based assay; E refers to other exemplary compounds
Conditions: GHS-R antagonist Ki and/or agonist EC50 class
Summary of the method: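 COS-7 cells transfected with GHS-R, labelled with [3H]-myo-inositol, preincubated in 10 mM LiCl buffer pH 7.4, then given compound 45 min at 37 °C; [3H]-IP isolated by anion exchange. Alternatively, CREB-luciferase reporter in transfected HEK293 with 5 h compound exposure. IC50/EC50 by nonlinear regression.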

GHS-R, sequence (Q92847 whole entry, species assumed): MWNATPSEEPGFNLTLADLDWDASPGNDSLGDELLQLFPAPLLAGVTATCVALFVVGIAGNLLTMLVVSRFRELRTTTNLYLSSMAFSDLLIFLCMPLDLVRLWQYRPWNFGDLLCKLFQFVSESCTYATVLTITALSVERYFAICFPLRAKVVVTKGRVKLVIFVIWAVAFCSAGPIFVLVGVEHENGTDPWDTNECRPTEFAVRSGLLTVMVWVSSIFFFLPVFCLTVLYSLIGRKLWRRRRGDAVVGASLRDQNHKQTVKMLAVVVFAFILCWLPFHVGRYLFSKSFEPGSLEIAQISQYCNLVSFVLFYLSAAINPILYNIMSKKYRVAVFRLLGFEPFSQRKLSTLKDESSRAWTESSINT

SMILES	Activity
CS(=O)(=O)N1CC2(CCN(C(=O)[C@@H](COCc3ccccc3)NC(=O)C3(N)CC3)CC2)c2ccccc21 [Compound 120]	E
COc1cccc(NC(=O)N2CC3(CCN(C(=O)[C@@H](COCc4ccccc4)NC(=O)OC(C)(C)C)CC3)c3ccccc32)c1 [Compound 65]	E
CC(C)(C)C(=O)N[C@H](COCc1ccccc1)C(=O)N1CCC2(CC1)CN(S(C)(=O)=O)c1ccccc12 [Compound 44]	C (C refers to a compound having antagonist activity of Ki>100 nM and <1500 nM in a cell based assay)
CS(=O)(=O)N1CC2(CCN(C(=O)[C@@H](COCc3ccccc3)NS(=O)(=O)CCN3CCCCC3)CC2)c2ccccc21.Cl [Compound 37]	C (C refers to a compound having antagonist activity of Ki>100 nM and <1500 nM in a cell based assay)
CS(=O)(=O)N1CC2(CCN(C(=O)[C@@H](COCc3ccccc3)NC(=O)NCCCO)CC2)c2ccccc21 [Compound 95]	E
CC(C)N1CCC(C(=O)N[C@H](COCc2ccccc2)C(=O)N2CCC3(CC2)CN(S(C)(=O)=O)c2ccccc23)CC1 [Compound 19]	C (C refers to a compound having antagonist activity of Ki>100 nM and <1500 nM in a cell based assay)
C=CS(=O)(=O)N[C@H](COCc1ccccc1)C(=O)N1CCC2(CC1)CN(S(C)(=O)=O)c1ccccc12 [Compound 147]	E
CC(C)(C)OC(=O)N[C@H](COCc1ccccc1)C(=O)N1CCC2(C=Cc3ccccc32)CC1 [Compound 30]	C (C refers to a compound having antagonist activity of Ki>100 nM and <1500 nM in a cell based assay)
CS(=O)(=O)N1CC2(CCN(C(=O)[C@@H](COCc3ccccc3)NC(=O)C[C@@H]3CCCN3)CC2)c2ccccc21 [Compound 23]	C (C refers to a compound having antagonist activity of Ki>100 nM and <1500 nM in a cell based assay)
CN1CC=C(C(=O)N[C@H](COCc2ccccc2)C(=O)N2CCC3(CC2)CN(S(C)(=O)=O)c2ccccc23)CC1 [Compound 99]	E
CN1CCC(C(=O)N[C@H](CCc2ccccc2)C(=O)N2CCC3(CC2)CN(S(C)(=O)=O)c2ccccc23)CC1 [Compound 136]	E
CCN(CC)CCCS(=O)(=O)N[C@H](COCc1ccccc1)C(=O)N1CCC2(CC1)CN(S(C)(=O)=O)c1ccccc12 [Compound 155]	A (A refers to a compound having antagonist activity with Ki<100 nM in a cell based assay)
CC(=O)N[C@H](COCc1ccccc1)C(=O)N1CCC2(CC1)CN(S(C)(=O)=O)c1ccccc12 [Compound 51]	E
CN(C)CC(=O)N[C@H](COCc1ccccc1)C(=O)N1CCC2(CC1)CN(S(=O)(=O)Cc1ccccc1)c1ccccc12 [Compound 26]	C (C refers to a compound having antagonist activity of Ki>100 nM and <1500 nM in a cell based assay)
COC(=O)CC(=O)N1CC2(CCN(C(=O)[C@@H](COCc3ccccc3)NC(=O)CN(C)C)CC2)c2ccccc21 [Compound 72]	E
C[C@@H](N)C(=O)N[C@H](COCc1ccccc1)C(=O)N1CCC2(CC1)CN(S(C)(=O)=O)c1ccccc12 [Compound 79]	E
CN1CCCC(C(=O)N[C@H](COCc2ccccc2)C(=O)N2CCC3(CC2)CN(S(C)(=O)=O)c2ccccc23)C1 (stereo partly drawn) [Compound 13]	A (A refers to a compound having antagonist activity with Ki<100 nM in a cell based assay)
CN(C)CC(=O)NC(C)(C)C(=O)N[C@H](COCc1ccccc1)C(=O)N1CCC2(CC1)CN(S(C)(=O)=O)c1ccccc12 [Compound 127]	B (B refers to a compound having agonist activity with EC50<100 nM in a cell based assay)
CS(=O)(=O)N1CC2(CCN(C(=O)[C@@H](COCc3ccccc3)N3CCCS3(=O)=O)CC2)c2ccccc21 [Compound 158]	E
CN1CCC[C@H]1CC(=O)N[C@H](COCc1ccccc1)C(=O)N1CCC2(CC1)CN(S(C)(=O)=O)c1ccccc12 [Compound 113]	E
CN1CCC(NC(=O)N2C[C@H](OCc3ccccc3)CC2C(=O)N2CCC3(CC2)CN(S(C)(=O)=O)c2ccccc23)CC1 (stereo partly drawn) [Compound 139]	E
